From patent US10611731B2, “5-methyl-6-phenyl-4,5-dihydro-2H-pyridazin-3-one derivative” (OTSUKA PHARMACEUTICAL CO., LTD., priority 2016, dated 2020) come the findings set out here.

The subject of this experiment is human childhood brain tumor cell lines (PFSK-1). As to the kind of experiment: Growth inhibitory activity against PFSK-1 cells (WST-8, Cell Counting Kit-8). The class given is cell-based. The settings on record: Homo sapiens, 72 h, 3 days incubation with test compound, WST-8 OD 450/630 nm, read-out: IC50 (concentration inhibiting 50% of the cell growth). As to the method:
The growth inhibitory activity against human childhood brain tumor cell lines (PFSK-1) was measured with WST-8 reagent [2-(2-methoxy-4-nitrophenyl)-3-(4-nitrophenyl)-5-(2,4-disulfophenyl)-2H-tetrazolium monosodium salt, Cell Counting Kit-8™], according to the method described in Tominaga, H. et al., Anal. Commun., 1999, 36, 47-50. Briefly, PFSK-1 was seeded in 96-well microplate at 100 μL/well with Roswell Park Memorial Institute (RPMI) 1640 medium containing 10% fetal bovine serum (FBS), and the cells were incubated in the presence of 5% carbon dioxide (CO2) at 37° C. for 24 hours. 50 μL of each test compound diluted with the medium was added to each well, and then the cells were incubated further for 3 days. After the incubation, 15 μL of Cell Counting Kit-8™ was added to each well, and the cells were incubated for one and half hours. Then, optical density (OD) values at measurement wavelength 450 nm and reference wavelength 630 nm were measured and the difference thereof was calculated. From the calculated difference, the OD value difference (at measurement wavelength 450 nm and reference wavelength 630 nm) of the control well which includes no cell was subtracted to afford cell-growth activity in each well.
The cell growth inhibitory activity of each test compound was calculated by comparing the cell-growth activity with each test compound to the cell-growth activity without any test compound (control), and each IC50 (nM) which is the concentration inhibiting 50% of the cell growth was calculated.

Some results are limits rather than exact numbers.

Consider `Cc1c(F)c(C2=NNC(=O)CC2C)cc(Cl)c1OCC(C)(C)O` (centres unmarked) [Example 35, 6-[5-Chloro-2-fluoro-4-(2-hydroxy-2-methylpropoxy)-3-methylphenyl]-5-methyl-4,5-dihydro-2H-pyridazin-3-one], for which the IC50 was 6.3 nM.

For the molecule `Cc1cc(C2=NNC(=O)CC2C)c(F)c(Cl)c1OCC(C)(C)O` (centres unmarked) [Example 36, 6-[3-chloro-2-fluoro-4-(2-hydroxy-2-methylpropoxy)-5-methylphenyl]-5-methyl-4,5-dihydro-2H-pyridazin-3-one], the IC50 is 1 nM.

For the molecule `CC1CC(=O)NN=C1c1cc(F)c(OCC(O)(C(F)(F)F)C(F)(F)F)c(Cl)c1` (centres unmarked) [Example 37, 6-{3-Chloro-5-fluoro-4-[3,3,3-trifluoro-2-hydroxy-2-(trifluoromethyl)propoxy]phenyl}-5-methyl-4,5-dihydro-2H-pyridazin-3-one], the IC50 came out at 8.8 nM.

For the molecule `CC1CC(=O)NN=C1c1cc(F)c(OCC(O)(C(F)(F)F)C(F)(F)F)c(Br)c1` (centres unmarked) [Example 38, 6-{3-Bromo-5-fluoro-4-[3,3,3-trifluoro-2-hydroxy-2-(trifluoromethyl)propoxy]phenyl}-5-methyl-4,5-dihydro-2H-pyridazin-3-one], the IC50 was 5.2 nM.

For `Cc1cc(C2=NNC(=O)CC2C)cc(Cl)c1OC[C@H](C)O` (stereo partly drawn) [Example 39, 6-{3-Chloro-4-[(2S)-2-hydroxypropoxy]-5-methylphenyl}-5-methyl-4,5-dihydro-2H-pyridazin-3-one], the IC50 was found to be 2.8 nM.

On to `Cc1cc(C2=NNC(=O)CC2C)cc(Cl)c1OC[C@@H](C)O` (stereo partly drawn) [Example 40, 6-{3-chloro-4-[(2R)-2-hydroxypropoxy]-5-methylphenyl}-5-methyl-4,5-dihydro-2H-pyridazin-3-one], for which the IC50 was found to be 1.6 nM.

Turning to `Cc1cc(C2=NNC(=O)CC2C)cc(C)c1OCC1(O)CC1` (centres unmarked) [Example 43, 6-{4-[(1-Hydroxycyclopropyl)methoxy]-3,5-dimethylphenyl}-5-methyl-4,5-dihydro-2H-pyridazin-3-one], the IC50 came out at 4.3 nM.

For `Cc1cc(C2=NNC(=O)CC2C)cc(Cl)c1OCC1(O)CC1` (centres unmarked) [Example 44, 6-{3-chloro-4-[(1-hydroxycyclopropyl)methoxy]-5-methylphenyl}-5-methyl-4,5-dihydro-2H-pyridazin-3-one], the IC50 worked out at 1 nM.

As for `Cc1cc(C2=NNC(=O)CC2C)cc(F)c1OCC1(O)CC1` (centres unmarked) [Example 45, 6-{3-Fluoro-4-[(1-hydroxycyclopropyl)methoxy]-5-methylphenyl}-5-methyl-4,5-dihydro-2H-pyridazin-3-one], the IC50 came to 7.2 nM.

Take `Cc1c(OCC2(O)CC2)ccc(C2=NNC(=O)CC2C)c1F` (centres unmarked) [Example 46, 6-{2-Fluoro-4-[(1-hydroxycyclopropyl)methoxy]-3-methylphenyl}-5-methyl-4,5-dihydro-2H-pyridazin-3-one]: the IC50 is 3.9 nM.

`CC1CC(=O)NN=C1c1ccc(OCC2(O)CC2)c(Cl)c1F` (centres unmarked) [Example 47, 6-{3-chloro-2-fluoro-4-[(1-hydroxycyclopropyl)methoxy]phenyl}-5-methyl-4,5-dihydro-2H-pyridazin-3-one]: the IC50 was 2.4 nM.

Turning to `CC(O)COc1ccc(C2=NNC(=O)CC2C)c(F)c1Br` (centres unmarked) [Example 48, 6-[3-bromo-2-fluoro-4-(2-hydroxypropoxy)phenyl]-5-methyl-4,5-dihydro-2H-pyridazin-3-one], the IC50 was 0.9 nM.

For the molecule `CC(O)COc1ccc(C2=NNC(=O)CC2C)c(F)c1F` (centres unmarked) [Example 49, 6-[2,3-Difluoro-4-(2-hydroxypropoxy)phenyl]-5-methyl-4,5-dihydro-2H-pyridazin-3-one], the IC50 came to 2.8 nM.

As to `CC(O)COc1c(F)cc(C2=NNC(=O)CC2C)cc1Br` (centres unmarked) [Example 50, 6-[3-Bromo-5-fluoro-4-(2-hydroxypropoxy)phenyl]-5-methyl-4,5-dihydro-2H-pyridazin-3-one], the IC50 is 2.9 nM.

Take `Cc1cc(C2=NNC(=O)CC2C)cc(C)c1OCC(C)O` (centres unmarked) [Example 51, 6-[4-(2-Hydroxypropoxy)-3,5-dimethylphenyl]-5-methyl-4,5-dihydro-2H-pyridazin-3-one]: the IC50 came out at 5.5 nM.

As for `CC(O)COc1c(F)cc(C2=NNC(=O)CC2C)cc1Cl` (centres unmarked) [Example 52, 6-[3-Chloro-5-fluoro-4-(2-hydroxypropoxy)phenyl]-5-methyl-4,5-dihydro-2H-pyridazin-3-one], the IC50 worked out at 3.8 nM.

With `CC(O)COc1c(Cl)cc(C2=NNC(=O)CC2C)cc1Cl` (centres unmarked) [Example 53, 6-[3,5-dichloro-4-(2-hydroxypropoxy)phenyl]-5-methyl-4,5-dihydro-2H-pyridazin-3-one], the IC50 was 1.9 nM.

In the case of `CC(O)COc1ccc(C2=NNC(=O)CC2C)c(F)c1Cl` (centres unmarked) [Example 54, 6-[3-chloro-2-fluoro-4-(2-hydroxypropoxy)phenyl]-5-methyl-4,5-dihydro-2H-pyridazin-3-one], the IC50 came to 0.5 nM.

As for `Cc1cc(C2=NNC(=O)CC2C)cc(Cl)c1OCC(C)O` (centres unmarked) [Example 55, 6-[3-chloro-4-(2-hydroxypropoxy)-5-methylphenyl]-5-methyl-4,5-dihydro-2H-pyridazin-3-one], the IC50 turned out to be 1.9 nM.

In the case of `Cc1cc(C2=NNC(=O)CC2C)cc(F)c1OCC(C)O` (centres unmarked) [Example 56, 6-[3-Fluoro-4-(2-hydroxypropoxy)-5-methylphenyl]-5-methyl-4,5-dihydro-2H-pyridazin-3-one], the IC50 turned out to be 7.6 nM.

Take `CC(O)COc1c(Cl)cc(C2=NNC(=O)CC2C)cc1Br` (centres unmarked) [Example 57, 6-[3-bromo-5-chloro-4-(2-hydroxypropoxy)phenyl]-5-methyl-4,5-dihydro-2H-pyridazin-3-one]: the IC50 is under 1 nM.

In the case of `Cc1c(OCC(C)O)ccc(C2=NNC(=O)CC2C)c1F` (centres unmarked) [Example 58, 6-[2-Fluoro-4-(2-hydroxypropoxy)-3-methylphenyl]-5-methyl-4,5-dihydro-2H-pyridazin-3-one], the IC50 came out at 2.8 nM.

Regarding `C=Cc1c(OCC(C)O)ccc(C2=NNC(=O)CC2C)c1F` (centres unmarked) [Example 59, 6-[2-fluoro-4-(2-hydroxypropoxy)-3-vinylphenyl]-5-methyl-4,5-dihydro-2H-pyridazin-3-one], the IC50 worked out at 2.2 nM.

As for `CCc1c(OCC(C)O)ccc(C2=NNC(=O)CC2C)c1F` (centres unmarked) [Example 60, 6-[3-Ethyl-2-fluoro-4-(2-hydroxypropoxy)phenyl]-5-methyl-4,5-dihydro-2H-pyridazin-3-one], the IC50 was 4.7 nM.

On to `CCC(O)COc1ccc(C2=NNC(=O)CC2C)c(F)c1F` (centres unmarked) [Example 61, 6-[2,3-Difluoro-4-(2-hydroxybutoxy)phenyl]-5-methyl-4,5-dihydro-2H-pyridazin-3-one], for which the IC50 was 4.7 nM.

On to `CCC(O)COc1c(F)cc(C2=NNC(=O)CC2C)cc1Cl` (centres unmarked) [Example 62, 6-[3-Chloro-5-fluoro-4-(2-hydroxybutoxy)phenyl]-5-methyl-4,5-dihydro-2H-pyridazin-3-one], for which the IC50 came out at 8.9 nM.

For `CCC(O)COc1c(Cl)cc(C2=NNC(=O)CC2C)cc1Cl` (centres unmarked) [Example 63, 6-[3,5-Dichloro-4-(2-hydroxybutoxy)phenyl]-5-methyl-4,5-dihydro-2H-pyridazin-3-one], the IC50 is 5 nM.

Consider `CCC(O)COc1ccc(C2=NNC(=O)CC2C)c(F)c1Cl` (centres unmarked) [Example 64, 6-[3-chloro-2-fluoro-4-(2-hydroxybutoxy)phenyl]-5-methyl-4,5-dihydro-2H-pyridazin-3-one], for which the IC50 was 2.1 nM.

For the molecule `CCC(O)COc1c(C)cc(C2=NNC(=O)CC2C)cc1Cl` (centres unmarked) [Example 65, 6-[3-Chloro-4-(2-hydroxybutoxy)-5-methylphenyl]-5-methyl-4,5-dihydro-2H-pyridazin-3-one], the IC50 worked out at 4.3 nM.

With `CCC(O)COc1c(Cl)cc(C2=NNC(=O)CC2C)cc1Br` (centres unmarked) [Example 66, 6-[3-Bromo-5-chloro-4-(2-hydroxybutoxy)phenyl]-5-methyl-4,5-dihydro-2H-pyridazin-3-one], the IC50 turned out to be 4.1 nM.

With `C=Cc1c(OCC(O)CC)ccc(C2=NNC(=O)CC2C)c1F` (centres unmarked) [Example 67, 6-[2-Fluoro-4-(2-hydroxybutoxy)-3-vinylphenyl]-5-methyl-4,5-dihydro-2H-pyridazin-3-one], the IC50 was 3.6 nM.

With `CC1CC(=O)NN=C1c1cc(F)c(OCC(C)(C)CO)c(Br)c1` (centres unmarked) [Example 69, 6-[3-bromo-5-fluoro-4-(3-hydroxy-2,2-dimethylpropoxy)phenyl]-5-methyl-4,5-dihydro-2H-pyridazin-3-one], the IC50 is 1.2 nM.

Take `CC1CC(=O)NN=C1c1ccc(OCC(C)(C)CO)c(Br)c1F` (centres unmarked) [Example 70, 6-[3-Bromo-2-fluoro-4-(3-hydroxy-2,2-dimethylpropoxy)phenyl]-5-methyl-4,5-dihydro-2H-pyridazin-3-one]: the IC50 was found to be 5.3 nM.

With `Cc1cc(C2=NNC(=O)CC2C)cc(C)c1OCC(C)(C)CO` (centres unmarked) [Example 71, 6-[4-(3-Hydroxy-2,2-dimethylpropoxy)-3,5-dimethylphenyl]-5-methyl-4,5-dihydro-2H-pyridazin-3-one], the IC50 turned out to be 3.9 nM.

In the case of `Cc1cc(C2=NNC(=O)CC2C)cc(Cl)c1OCC(C)(C)CO` (centres unmarked) [Example 72, 6-[3-chloro-4-(3-hydroxy-2,2-dimethylpropoxy)-5-methylphenyl]-5-methyl-4,5-dihydro-2H-pyridazin-3-one], the IC50 was found to be 0.9 nM.
